From patent US11331290B2, “Niclosamide for the treatment of cancer metastasis” (Max-Delbrück-Centrum für Molekulare Medizin in der …, priority 2011, dated 2022)

Target: T1, CTNNB1/TCF complex (Homo sapiens, UniProt P35222, DEL45-45)
T1 construct: endogenous in cells; host or cells: HCT116 nuclear extract
T1 sequence (P35222 1-781): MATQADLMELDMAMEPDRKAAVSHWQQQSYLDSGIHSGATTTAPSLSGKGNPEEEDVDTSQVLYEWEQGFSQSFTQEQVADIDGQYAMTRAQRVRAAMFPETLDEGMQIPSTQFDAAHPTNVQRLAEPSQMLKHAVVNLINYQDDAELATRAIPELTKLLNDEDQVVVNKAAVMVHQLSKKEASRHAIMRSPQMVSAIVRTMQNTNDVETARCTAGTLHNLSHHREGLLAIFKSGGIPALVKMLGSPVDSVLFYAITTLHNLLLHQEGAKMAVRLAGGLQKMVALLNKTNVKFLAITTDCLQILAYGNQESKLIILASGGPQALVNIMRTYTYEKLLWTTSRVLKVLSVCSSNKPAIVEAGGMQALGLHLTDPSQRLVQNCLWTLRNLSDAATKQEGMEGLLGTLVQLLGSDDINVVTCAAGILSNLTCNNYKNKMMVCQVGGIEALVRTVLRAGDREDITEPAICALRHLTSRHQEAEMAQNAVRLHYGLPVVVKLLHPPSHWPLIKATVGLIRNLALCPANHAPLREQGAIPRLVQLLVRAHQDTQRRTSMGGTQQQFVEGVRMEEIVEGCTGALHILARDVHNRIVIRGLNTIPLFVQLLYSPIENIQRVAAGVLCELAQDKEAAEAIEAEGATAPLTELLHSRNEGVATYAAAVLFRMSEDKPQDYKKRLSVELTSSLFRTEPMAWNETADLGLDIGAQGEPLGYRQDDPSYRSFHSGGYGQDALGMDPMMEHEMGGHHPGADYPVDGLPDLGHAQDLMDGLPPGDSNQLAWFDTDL
T1 sequence (P35222 with tags, fused parts or gaps DEL45-45): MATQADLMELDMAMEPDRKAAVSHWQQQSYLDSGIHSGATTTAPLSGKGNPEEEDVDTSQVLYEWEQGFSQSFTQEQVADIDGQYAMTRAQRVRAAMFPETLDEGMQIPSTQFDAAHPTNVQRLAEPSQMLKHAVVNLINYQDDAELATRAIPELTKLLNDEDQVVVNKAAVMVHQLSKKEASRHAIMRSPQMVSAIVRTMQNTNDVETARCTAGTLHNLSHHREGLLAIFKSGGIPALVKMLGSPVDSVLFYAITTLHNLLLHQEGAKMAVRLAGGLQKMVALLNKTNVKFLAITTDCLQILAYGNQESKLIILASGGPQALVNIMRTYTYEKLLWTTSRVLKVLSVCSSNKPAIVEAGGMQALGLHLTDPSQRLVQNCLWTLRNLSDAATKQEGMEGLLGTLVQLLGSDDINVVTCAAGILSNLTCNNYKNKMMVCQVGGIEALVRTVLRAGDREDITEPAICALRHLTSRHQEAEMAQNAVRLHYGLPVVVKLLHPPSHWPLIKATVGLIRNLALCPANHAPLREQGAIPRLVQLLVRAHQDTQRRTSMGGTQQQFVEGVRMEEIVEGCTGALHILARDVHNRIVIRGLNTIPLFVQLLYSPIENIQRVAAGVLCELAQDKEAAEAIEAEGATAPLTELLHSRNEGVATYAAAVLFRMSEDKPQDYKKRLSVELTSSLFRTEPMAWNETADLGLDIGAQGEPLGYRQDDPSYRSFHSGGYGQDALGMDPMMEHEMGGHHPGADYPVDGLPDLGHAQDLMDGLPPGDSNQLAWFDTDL
Test: Electrophoretic mobility shift assay (EMSA), TCF-binding site of the S100A4 promoter
Type: cell-based
Method: Electrophoretic mobility shift assay (EMSA) was performed as described earlier (4). 5×10^6 HCT116 cells were plated into a 10 cm culture dish and were given 15 hour to attach to the bottom of the dish. Cells were treated with 0.1, 0.3, 0.6 or 1 μM niclosamide or the respective amount of DMSO for 24 hours. For each condition 5 μg nuclear extracted protein was incubated 30 minutes at room temperature with 0.05% w/v poly dI⋅dC, 0.5 mM Tris, 0.05 mM EDTA, 2.5% v/v glycerol, 0.2% v/v NP-40, 5 mM MgCl2 and double-stranded biotinylated oligonucleotides (sense 5′-[…]-3′, antisense 3′-[…] T-5′) encompassing the TCF-binding site of the S100A4 promoter. For supershift 1.25 μg monoclonal CTNNB1 antibody (BD Biosciences) was added. […]
For WNT pathway analysis the following cells were applied: HCT116 cells (heterozygous for gain-of-function-mutated CTNNB1; wt/mut), HAB-68mut cells (deletion mutant of HCT116, expressing only gain-of-function-mutated CTNNB1: −/mut) and HAB-92 wt cells (deletion mutant of HCT116, expressing only wild-type CTNNB1: wt/−). […] Reporter gene expression was determined by luciferase activity measurement. […] S100A4 expression was analyzed by qRT-PCR and immunoblot. […] Cells were treated with 1 μM niclosamide for 24 hours and cell migration was determined by Boyden chamber assay. […] Differences were analyzed by Student's t test (n.s.; not statistically significant). […]

## O=C(Nc1ccc([N+](=O)[O-])cc1Cl)c1cc(Cl)ccc1O [niclosamide, 2′,5-dichloro-4′-nitrosalicylanilide]
Nuclear extracts from 1 μM niclosamide-treated HCT116 cells
  supershift with monoclonal anti-CTNNB1: No supershift could be detected
Nuclear extracts of HCT116 cells, increasing concentrations (0.1, 0.3, 0.6 or 1 μM)
  CTNNB1/TCF/oligo complex: interrupted the CTNNB1/TCF/oligo complex in a concentration-dependent manner
